{"source": "patent US12145941B2", "about": "“Heterocyclic antiviral agents” (ENANTA PHARMACEUTICALS, INC., priority 2021, dated 2024)", "molecular_target": "SARS-CoV-2 3CL-protease (Severe acute respiratory syndrome coronavirus 2 (2019-nCoV) (SARS-CoV-2), UniProt P0DTD1)", "test": "SARS-CoV-2 3C-like (3CL) protease fluorescence assay (FRET)", "assay_type": "biochemical", "details": "recombinant SARS-CoV-2 3CL-protease 10 nM, 30 min preincubation at RT, run in duplicate", "method": "SARS-CoV-2 3C-like (3CL) protease fluorescence assay (FRET): Recombinant SARS-CoV-2 3CL-protease was expressed and purified. TAMRA-[…]-Dabcyl-OH peptide 3CLpro substrate was synthesized. Black, low volume, round-bottom, 384 well microplates were used. In a typical assay, 0.85 μL of test compound was dissolved in DMSO then incubated with SARS-CoV-2 3CL-protease (10 nM) in 10 μL assay buffer (50 mM HEPES [pH 7.5], 1 mM DTT, 0.01% BSA, 0.01% Triton-X 100) for 30 min at RT. Next, 10 μL of 3CL-protease substrate (40 μM) in assay buffer was added and the assays were monitored continuously for 1 h in an Envision multimode plate reader operating in fluorescence kinetics mode with excitation at 540 nm and emission at 580 nm at RT. No compound (DMSO only) and no enzyme controls were routinely included in each plate. All experiments were run in duplicate. Data Analysis: SARS-CoV-2 3CL-protease enzyme activity was measured as initial velocity of the linear phase (RFU/s) and normalized to controlled samples DMSO (100% activity) and no enzyme (0% activity) to determine percent residual activity at various concentrations of test compounds (0-10 μM). Data were fitted to normalized activity (variable slope) versus concentration fit in GraphPad Prism 7 to determine IC50.", "key": {"[1]": {"details": "TAMRA-SITSAVLQSGFRKMK-Dabcyl-OH substrate"}}, "note": "pIC50: −log10 of the molar value."}
{"smiles": "CC(C)C[C@@H](C(=O)N1C[C@]2(C[C@H]1C#N)C(=O)Nc1ccccc12)N1C(=O)c2ccccc2[C@H]1C", "note": "[Compound 22-a, (3R,5'S)-1′-((S)-4-methyl-2-((R)-1-methyl-3-oxoisoindolin-2-yl)pentanoyl)-2-oxospiro[indoline-3,3′-pyrrolidine]-5′-carbonitrile]", "values": [{"measurement": "pIC50", "setting": "TAMRA-[…]-Dabcyl-OH substrate", "value": "> 7.00"}]}
{"smiles": "CC(C)C[C@@H](C(=O)N1C[C@]2(C[C@H]1C#N)C(=O)Nc1ccccc12)N1CCc2c(F)cccc2C1=O", "note": "[Compound 3]", "values": [{"measurement": "pIC50", "setting": "TAMRA-[…]-Dabcyl-OH substrate", "value": "> 7.00"}]}
{"smiles": "CC(C)(F)C[C@@H](C(=O)N1C[C@]2(C[C@H]1C#N)C(=O)Nc1ccccc12)N1Cc2c(Cl)cccc2C1=O", "note": "[Compound 14]", "values": [{"measurement": "pIC50", "setting": "TAMRA-[…]-Dabcyl-OH substrate", "value": "> 7.00"}]}
{"smiles": "CC(C)C[C@H](C(=O)N1C[C@]2(C[C@H]1C#N)C(=O)Nc1ccccc12)n1cccc(-c2ccncc2)c1=O", "note": "[Compound 26-b]", "values": [{"measurement": "pIC50", "setting": "TAMRA-[…]-Dabcyl-OH substrate", "value": "< 6.00"}]}
{"smiles": "CC(C)C[C@@H](C(=O)N1C[C@]2(C[C@H]1C#N)C(=O)Nc1ccccc12)N1CCc2cc(F)ccc2C1=O", "note": "[Compound 4]", "values": [{"measurement": "pIC50", "setting": "TAMRA-[…]-Dabcyl-OH substrate", "value": "> 7.00"}]}
{"smiles": "COc1ccc2c(c1)CN([C@@H](CC(C)(C)C)C(=O)N1C[C@]3(C[C@H]1C#N)C(=O)Nc1ccccc13)C2=O", "note": "[Compound 17]", "values": [{"measurement": "pIC50", "setting": "TAMRA-[…]-Dabcyl-OH substrate", "value": "> 7.00"}]}
{"smiles": "CC(C)(F)C[C@@H](C(=O)N1C[C@]2(C[C@H]1C#N)C(=O)Nc1ccccc12)N1Cc2ccc(Cl)cc2C1=O", "note": "[Compound 15]", "values": [{"measurement": "pIC50", "setting": "TAMRA-[…]-Dabcyl-OH substrate", "value": "> 7.00"}]}
{"smiles": "CC(C)C[C@@H](C(=O)N1C[C@]2(C[C@H]1C#N)C(=O)Nc1ccccc12)N1Cc2cc(Br)ccc2C1=O", "note": "[Compound 9, (3R,5'S)-1′-((S)-2-(5-bromo-1-oxoisoindolin-2-yl)-4-methylpentanoyl) oxospiro[indoline-3,3′-pyrrolidine]-5′-carbonitrile]", "values": [{"measurement": "pIC50", "setting": "[1]", "value": "> 7.00"}]}
{"smiles": "CC(C)C[C@@H](C(=O)N1C[C@]2(C[C@H]1C#N)C(=O)Nc1ccccc12)N1CCc2ccc(F)cc2C1=O", "note": "[Compound 2]", "values": [{"measurement": "pIC50", "setting": "TAMRA-[…]-Dabcyl-OH substrate", "value": "> 7.00"}]}
{"smiles": "CC(C)(C)C[C@@H](C(=O)N1C[C@]2(C[C@H]1C#N)C(=O)Nc1ccccc12)N1Cc2c(cccc2C(F)(F)F)C1=O", "note": "[Compound 11]", "values": [{"measurement": "pIC50", "setting": "TAMRA-[…]-Dabcyl-OH substrate", "value": "> 7.00"}]}
{"smiles": "CC(C)C[C@@H](C(=O)N1C[C@]2(C[C@H]1C#N)C(=O)Nc1ccccc12)N1C(=O)c2ccc(F)cc2C1(C)C", "note": "[Compound 24]", "values": [{"measurement": "pIC50", "setting": "TAMRA-[…]-Dabcyl-OH substrate", "value": "< 6.00"}]}
{"smiles": "CC(C)C[C@@H](C(=O)N1C[C@]2(C[C@H]1C#N)C(=O)Nc1ccccc12)N1CCc2cccc(F)c2C1=O", "note": "[Compound 1, (3R,5'S)-1′-((S)-2-(8-fluoro-1-oxo-3,4-dihydroisoquinolin-2(1H)-yl)-4-methylpentanoyl)-2-oxospiro[indoline-3,3′-pyrrolidine]-5′-carbonitrile]", "values": [{"measurement": "pIC50", "setting": "TAMRA-[…]-Dabcyl-OH substrate", "value": "6.00 to 7.00"}]}
{"smiles": "CC(C)(C)C[C@@H](C(=O)N1C[C@]2(C[C@H]1C#N)C(=O)Nc1ccccc12)N1C(=O)c2ccc(F)cc2C1(C)C", "note": "[Compound 23, (3R,5'S)-1′-((S)-2-(6-fluoro-1,1-dimethyl-3-oxoisoindolin-2-yl)-4,4-dimethylpentanoyl)-2-oxospiro[indoline-3,3′-pyrrolidine]-5′-carbonitrile]", "values": [{"measurement": "pIC50", "setting": "TAMRA-[…]-Dabcyl-OH substrate", "value": "6.00 to 7.00"}]}
{"smiles": "CC(C)C[C@@H](C(=O)N1C[C@]2(C[C@H]1C#N)C(=O)Nc1ccccc12)n1cccc(-c2ccncc2)c1=O", "note": "[Compound 26-a]", "values": [{"measurement": "pIC50", "setting": "TAMRA-[…]-Dabcyl-OH substrate", "value": "6.00 to 7.00"}]}
{"smiles": "CC(C)(C)C[C@@H](C(=O)N1C[C@]2(C[C@H]1C#N)C(=O)Nc1ccccc12)N1Cc2cc(Cl)ccc2C1=O", "note": "[Compound 12]", "values": [{"measurement": "pIC50", "setting": "TAMRA-[…]-Dabcyl-OH substrate", "value": "> 7.00"}]}
{"smiles": "CC(C)C[C@@H](C(=O)N1C[C@]2(C[C@H]1C#N)C(=O)Nc1ccccc12)N1C(=O)c2ccccc2[C@@H]1C", "note": "[Compound 22-b, (3R,5'S)-1′-((S)-4-methyl-2-((S)-1-methyl-3-oxoisoindolin-2-yl)pentanoyl)-2-oxospiro[indoline-3,3′-pyrrolidine]-5′-carbonitrile]", "values": [{"measurement": "pIC50", "setting": "TAMRA-[…]-Dabcyl-OH substrate", "value": "> 7.00"}]}
{"smiles": "CC(C)(F)C[C@@H](C(=O)N1C[C@]2(C[C@H]1C#N)C(=O)Nc1ccccc12)N1Cc2ncc(Cl)cc2C1=O", "note": "[Compound 21]", "values": [{"measurement": "pIC50", "setting": "TAMRA-[…]-Dabcyl-OH substrate", "value": "> 7.00"}]}
{"smiles": "CC(C)(C)C[C@@H](C(=O)N1C[C@]2(C[C@H]1C#N)C(=O)Nc1ccccc12)N1Cc2cccnc2C1=O", "note": "[Compound 20]", "values": [{"measurement": "pIC50", "setting": "TAMRA-[…]-Dabcyl-OH substrate", "value": "6.00 to 7.00"}]}
{"smiles": "CC(C)C[C@H](C(=O)N1C[C@]2(C[C@H]1C#N)C(=O)Nc1ccccc12)n1cccc(-c2ccc(F)cc2)c1=O", "note": "[Compound 25-b]", "values": [{"measurement": "pIC50", "setting": "[1]", "value": "< 6.00"}]}
{"smiles": "CC(C)(C)C[C@@H](C(=O)N1C[C@]2(C[C@H]1C#N)C(=O)Nc1ccccc12)N1CCc2cccc(F)c2C1=O", "note": "[Compound 8]", "values": [{"measurement": "pIC50", "setting": "TAMRA-[…]-Dabcyl-OH substrate", "value": "6.00 to 7.00"}]}
{"smiles": "CC(C)(F)C[C@@H](C(=O)N1C[C@]2(C[C@H]1C#N)C(=O)Nc1ccccc12)N1Cc2cccc(Cl)c2C1=O", "note": "[Compound 16]", "values": [{"measurement": "pIC50", "setting": "TAMRA-[…]-Dabcyl-OH substrate", "value": "6.00 to 7.00"}]}
{"smiles": "CC(C)(C)C[C@@H](C(=O)N1C[C@]2(C[C@H]1C#N)C(=O)Nc1ccccc12)N1CCc2ccc(F)cc2C1=O", "note": "[Compound 7]", "values": [{"measurement": "pIC50", "setting": "TAMRA-[…]-Dabcyl-OH substrate", "value": "> 7.00"}]}
{"smiles": "CC(C)C[C@@H](C(=O)N1C[C@]2(C[C@H]1C#N)C(=O)Nc1ccccc12)N1Cc2c(cccc2C(F)(F)F)C1=O", "note": "[Compound 10]", "values": [{"measurement": "pIC50", "setting": "TAMRA-[…]-Dabcyl-OH substrate", "value": "> 7.00"}]}
{"smiles": "CC(C)(C)C[C@@H](C(=O)N1C[C@]2(C[C@H]1C#N)C(=O)Nc1ccccc12)N1CCc2cc(F)ccc2C1=O", "note": "[Compound 6]", "values": [{"measurement": "pIC50", "setting": "TAMRA-[…]-Dabcyl-OH substrate", "value": "> 7.00"}]}
{"smiles": "COc1ccc2c(c1)C(=O)N([C@@H](CC(C)(C)C)C(=O)N1C[C@]3(C[C@H]1C#N)C(=O)Nc1ccccc13)C2", "note": "[Compound 18]", "values": [{"measurement": "pIC50", "setting": "TAMRA-[…]-Dabcyl-OH substrate", "value": "> 7.00"}]}
{"smiles": "CC(C)(F)C[C@@H](C(=O)N1C[C@]2(C[C@H]1C#N)C(=O)Nc1ccccc12)N1Cc2cc(Cl)ccc2C1=O", "note": "[Compound 13]", "values": [{"measurement": "pIC50", "setting": "TAMRA-[…]-Dabcyl-OH substrate", "value": "> 7.00"}]}
{"smiles": "COc1cccc2c1CN([C@@H](CC(C)(C)C)C(=O)N1C[C@]3(C[C@H]1C#N)C(=O)Nc1ccccc13)C2=O", "note": "[Compound 19]", "values": [{"measurement": "pIC50", "setting": "TAMRA-[…]-Dabcyl-OH substrate", "value": "> 7.00"}]}
{"smiles": "CC(C)(C)C[C@@H](C(=O)N1C[C@]2(C[C@H]1C#N)C(=O)Nc1ccccc12)N1CCc2c(F)cccc2C1=O", "note": "[Compound 5]", "values": [{"measurement": "pIC50", "setting": "TAMRA-[…]-Dabcyl-OH substrate", "value": "> 7.00"}]}
{"smiles": "C=C1c2ccccc2C(=O)N1[C@@H](CC(C)C)C(=O)N1C[C@]2(C[C@H]1C#N)C(=O)Nc1ccccc12", "note": "[Compound 22-c, (3R,5'S)-1′-((S)-4-methyl-2-(1-methylene-3-oxoisoindolin-2-yl)pentanoyl)-2-oxospiro[indoline-3,3′-pyrrolidine]-5′-carbonitrile]", "values": [{"measurement": "pIC50", "setting": "TAMRA-[…]-Dabcyl-OH substrate", "value": "> 7.00"}]}
